Assay results: ChEMBL document CHEMBL3399936, “Selective CB2 receptor agonists. Part 1: the identification of novel ligands through computer-aided drug design (CADD) approaches” (Bioorg Med Chem Lett, 2015)
Values after ≈ are worked out from the molar mass of the structure shown.

Experiments:
[1] = organism: Homo sapiens; assay: Ratio of EC50 for human CB1 receptor to EC50 for human CB2 receptor
[2] = Solubility of the compound at pH 7.4 after 16 to 18 hrs by UV spectrophotometry; format: physicochemical; conditions: buffer
[3] = Half life in human liver microsomes at 1 uM by LC/MS/MS analysis; format: ADME
[4] = biological target: T1, Cannabinoid receptor 1 (Homo sapiens, UniProt P21554); assay: Inhibition of human CB1 receptor expressed in CHO cells assessed as inhibition of forskolin-induced cAMP accumulation after 30 mins; format: functional, cell-based
T1 sequence (P21554 whole entry): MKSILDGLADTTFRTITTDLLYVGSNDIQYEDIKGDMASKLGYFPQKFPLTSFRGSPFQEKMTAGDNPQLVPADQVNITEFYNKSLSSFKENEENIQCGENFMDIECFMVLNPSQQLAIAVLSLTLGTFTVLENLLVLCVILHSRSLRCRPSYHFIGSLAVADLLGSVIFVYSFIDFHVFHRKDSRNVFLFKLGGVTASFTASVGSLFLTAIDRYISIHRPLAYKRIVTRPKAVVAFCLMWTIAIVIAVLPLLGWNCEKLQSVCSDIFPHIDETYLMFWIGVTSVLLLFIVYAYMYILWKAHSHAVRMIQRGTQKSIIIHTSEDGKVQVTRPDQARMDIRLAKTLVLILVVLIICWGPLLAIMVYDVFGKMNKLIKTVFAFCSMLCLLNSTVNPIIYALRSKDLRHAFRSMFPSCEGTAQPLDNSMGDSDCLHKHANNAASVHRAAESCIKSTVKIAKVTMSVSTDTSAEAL

[5] = biological target: Cannabinoid receptor 2 (Homo sapiens, UniProt P34972); assay: Inhibition of human CB2 receptor expressed in CHO cells assessed as inhibition of forskolin-induced cAMP accumulation after 30 mins; format: functional, cell-based
Cannabinoid receptor 2, sequence (P34972 whole entry): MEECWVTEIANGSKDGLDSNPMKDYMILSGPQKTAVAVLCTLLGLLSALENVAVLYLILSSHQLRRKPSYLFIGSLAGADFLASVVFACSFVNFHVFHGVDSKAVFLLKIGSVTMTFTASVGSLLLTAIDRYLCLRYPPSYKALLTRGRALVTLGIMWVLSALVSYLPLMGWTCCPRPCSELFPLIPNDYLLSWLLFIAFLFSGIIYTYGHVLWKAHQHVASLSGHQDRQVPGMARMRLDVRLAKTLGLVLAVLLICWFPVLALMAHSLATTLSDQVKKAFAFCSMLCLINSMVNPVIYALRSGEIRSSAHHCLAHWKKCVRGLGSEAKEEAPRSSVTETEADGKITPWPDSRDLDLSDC

[6] = biological target: T1, Cannabinoid receptor 1; assay: Partial agonist activity at human CB1 receptor expressed in CHO cells assessed as cAMP accumulation after 30 mins; format: functional, cell-based

O=C(Nc1cc(C(F)(F)F)on1)N1CCCN(C(=O)c2ccc(C(F)(F)F)cn2)CC1
Ratio EC50 [1]: 50 | solubility [2]: 0.4 µg/mL (≈ 0.886 µM) | half-life at 1 µM [3]: 9 min | EC50 [4]: 253 nM | EC50 [5]: 5 nM

CC(C)(C)c1cc(NC(=O)N2CC3CC2CN3C(=O)c2ccc(C(F)(F)F)cc2)no1 (stereo not given)
EC50 [5]: > 20 nM

CC(C)(C)c1cc(NC(=O)[C@H]2CCCN2c2ccc(C(F)(F)F)cc2)no1
Activity [6]: < 70%

CC(C)(C)c1cc(NC(=O)[C@H]2CCCN2c2ccc(Cl)cc2)no1
Activity [6]: < 70%

CC(C)(C)c1cc(NC(=O)[C@]2(C)CCCN2c2ccc(Cl)cc2)no1
Ratio EC50 [1]: 257 | EC50 [4]: 54 nM

O=C(Nc1cc(C(F)(F)F)on1)N1CCCN(C(=O)c2ccc(C(F)(F)F)cc2)CC1
Ratio EC50 [1]: 714 | EC50 [4]: 1000 nM | EC50 [5]: 1.4 nM

CCCCc1ccc(NC(=O)N2CCN(C(=O)CCC3CCCC3)CC2)cc1
EC50 [5]: > 20 nM

CC(C)(C)c1cc(NC(=O)C(C)(C)S(=O)(=O)c2ccc(C(F)(F)F)cc2)no1
Ratio EC50 [1]: 545 | EC50 [4]: 420 nM | EC50 [5]: 0.77 nM

CC(C)(C)c1cc(NC(=O)[C@]2(C)CCCN2c2ccc(C(F)(F)F)cc2)no1
Ratio EC50 [1]: 52 | EC50 [4]: 15 nM | EC50 [5]: 0.29 nM

CC(C)(C)c1cc(NC(=O)C(C)(C)S(=O)(=O)c2ccc(C(F)(F)F)cn2)no1
Ratio EC50 [1]: 140 | solubility [2]: 12 µg/mL (≈ 28.6 µM) | half-life at 1 µM [3]: < 5 min | EC50 [4]: 420 nM | EC50 [5]: 3 nM

CC(C)(C)c1cc(NC(=O)[C@]2(C)CCCN2c2ccc(C(F)(F)F)cn2)no1
Ratio EC50 [1]: 12 | EC50 [4]: 0.5 nM | EC50 [5]: 0.04 nM

CC(C)(C)c1cc(NC(=O)[C@@H]2CCCN2c2ncc(C(F)(F)F)cc2Cl)no1
Ratio EC50 [1]: 88 | EC50 [4]: 7 nM
